Assay results published in paper PMC7402526, “An in vitro quantitative systems pharmacology approach for deconvolving mechanisms of drug-induced, multilineage cytopenias” (PLoS Computational Biology, 2020).

What was measured:
[1] = system: total dead cells (totalDeadCells); assay: MLTA, total dead cells concentration-response; format: cell-based; conditions: Homo sapiens, 144 h, 6 days, normalized to vehicle control, read-out: total_dead normalized cell count
Outline: (§1)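 Freeze-thawed primary human bone marrow CD34+ cells in SFEM II with cytokine cocktail, drug added day 0, 6 days at 37°C, 5% CO2. Live/dead counts by 17-parameter flow cytometry with DAPI exclusion, bead-normalized, volume-corrected to cells/mL. Normalized per donor to mean of six vehicle wells; 2–7 donors pooled.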

B cells (B-lin) = assay: MLTA, B-lin: concentration-response and QSP model fit; format: cell-based, human; conditions: Homo sapiens, B-cell, 144 h
Outline: (§2)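 Values derive from fitting a QSP Emax model (EmaxT 0–2, above 1 denoting added cell killing) to vehicle-normalized lineage counts. Counts were obtained by 17-parameter flow after 6-day culture of human bone marrow CD34+ cells with test article.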

[2] = system: lymphocyte progenitors (LymP); assay: MLTA, LymP: concentration-response and QSP model fit; format: cell-based, human; conditions: Homo sapiens, Lymphocyte, 144 h
Outline: as §2

[3] = system: total viable cells (totalViableCells); assay: MLTA, total live cells concentration-response; format: cell-based; conditions: Homo sapiens, 144 h, 6 days, normalized to vehicle control, read-out: total_live normalized cell count
Outline: as §1

monocytes (monocyte-lin) = assay: MLTA, Mono: concentration-response and QSP model fit; format: cell-based, human; conditions: Homo sapiens, Monocyte, 144 h
Outline: (§3)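 Parameters come from fitting an Emax-based QSP model, with L1 regularization and Emax ranging 0–2, to vehicle-normalized, bead-corrected flow cytometry counts. Counts came from human bone marrow CD34+ cells treated from day 0 through a 6-day multi-lineage cytokine culture in SFEM II, using 2–7 donors per drug.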

[4] = system: granulocyte-macrophage progenitor (GMPs); assay: MLTA, GMPs: concentration-response and QSP model fit; format: cell-based, human; conditions: Homo sapiens, 144 h, 6 days, normalized to vehicle control, read-out: GMPs normalized cell count
Outline: as §2

granulocytes (Gran-lin) = assay: MLTA, Gran: concentration-response and QSP model fit; format: cell-based, human
Outline: as §3

[5] = system: monocyte progenitors (monocyte prog); assay: MLTA, MonoP: concentration-response and QSP model fit; format: cell-based, human
Outline: as §3

[6] = QSP model fit of 6-day MLTA data
[7] = cell-killing component, max(0, EmaxT-1)

CC(=O)O[C@H]1C(=O)[C@@]2(C)[C@H]([C@H](OC(=O)c3ccccc3)[C@]3(O)C[C@H](OC(=O)[C@H](O)[C@@H](NC(=O)c4ccccc4)c4ccccc4)C(C)=C1C3(C)C)[C@]1(OC(C)=O)CO[C@@H]1C[C@@H]2O [paclitaxel] was tested. Which activity at 0.0002 µM ([1]; dose 0.2 nM) did it give?
Its activity at 0.0002 µM is 105%.

What about the activity at 0.001 µM ([1]; dose 1 nM) of the same molecule?
Its activity at 0.001 µM is 113%.

And the activity at 0.005 µM ([1]; dose 5 nM)?
The activity at 0.005 µM was 115%.

What about the activity at 0.025 µM ([1]; dose 25 nM) of the same molecule?
The activity at 0.025 µM was 75.5%.

And the activity at 0.1 µM ([1]; dose 100 nM)?
The activity at 0.1 µM was 47.5%.

What about the activity at 0.5 µM ([1]; dose 500 nM) of the same molecule?
Its activity at 0.5 µM is 40.7%.

And the activity at 2.5 µM ([1]; dose 2500 nM)?
The activity at 2.5 µM was 46.1%.

What about the EC50 (B cells (B-lin); [6]) of the same molecule?
The EC50 was 36.7 nM.

And the activity at 0.0002 µM (B cells (B-lin); dose 0.2 nM, 6 days, normalized to vehicle control, read-out: B-lin normalized cell count)?
Its activity at 0.0002 µM is 102%.

And the activity at 0.001 µM (B cells (B-lin); dose 1 nM, 6 days, normalized to vehicle control, read-out: B-lin normalized cell count)?
The activity at 0.001 µM was 109%.

What about the activity at 0.005 µM (B cells (B-lin); dose 5 nM, 6 days, normalized to vehicle control, read-out: B-lin normalized cell count) of the same molecule?
Its activity at 0.005 µM is 75.9%.

And the activity at 0.025 µM (B cells (B-lin); dose 25 nM, 6 days, normalized to vehicle control, read-out: B-lin normalized cell count)?
Its activity at 0.025 µM is 1.34%.

And the activity at 0.1 µM (B cells (B-lin); dose 100 nM, 6 days, normalized to vehicle control, read-out: B-lin normalized cell count)?
Its activity at 0.1 µM is 0.231%.

And the activity at 0.5 µM (B cells (B-lin); dose 500 nM, 6 days, normalized to vehicle control, read-out: B-lin normalized cell count)?
Its activity at 0.5 µM is 0.372%.

What about the activity at 2.5 µM (B cells (B-lin); dose 2500 nM, 6 days, normalized to vehicle control, read-out: B-lin normalized cell count) of the same molecule?
The activity at 2.5 µM was 0.335%.

What about the Emax (B cells (B-lin); parameter from QSP model fitting, read-out: Emax_drug_B) of the same molecule?
Its Emax is 91.4%.

And the activity at 0.0002 µM ([2]; dose 0.2 nM, 6 days, normalized to vehicle control, read-out: LymP normalized cell count)?
The activity at 0.0002 µM was 122%.

And the activity at 0.001 µM ([2]; dose 1 nM, 6 days, normalized to vehicle control, read-out: LymP normalized cell count)?
The activity at 0.001 µM was 143%.

And the activity at 0.005 µM ([2]; dose 5 nM, 6 days, normalized to vehicle control, read-out: LymP normalized cell count)?
The activity at 0.005 µM was 61.3%.

And the activity at 0.025 µM ([2]; dose 25 nM, 6 days, normalized to vehicle control, read-out: LymP normalized cell count)?
Its activity at 0.025 µM is 9.53%.

And the activity at 0.1 µM ([2]; dose 100 nM, 6 days, normalized to vehicle control, read-out: LymP normalized cell count)?
The activity at 0.1 µM was 5.4%.

What about the activity at 0.5 µM ([2]; dose 500 nM, 6 days, normalized to vehicle control, read-out: LymP normalized cell count) of the same molecule?
The activity at 0.5 µM was 7.34%.

And the activity at 2.5 µM ([2]; dose 2500 nM, 6 days, normalized to vehicle control, read-out: LymP normalized cell count)?
The activity at 2.5 µM was 9.6%.

And the Emax ([2]; parameter from QSP model fitting, read-out: Emax_drug_LymP)?
The Emax was 0.16%.

What about the viability at 0.0002 µM ([3]; dose 0.2 nM) of the same molecule?
The viability at 0.0002 µM was 102%.

What about the viability at 0.001 µM ([3]; dose 1 nM) of the same molecule?
Its viability at 0.001 µM is 110%.

And the viability at 0.005 µM ([3]; dose 5 nM)?
Its viability at 0.005 µM is 75.9%.

And the viability at 0.025 µM ([3]; dose 25 nM)?
The viability at 0.025 µM was 1.22%.

And the viability at 0.1 µM ([3]; dose 100 nM)?
The viability at 0.1 µM was 0.201%.

What about the viability at 0.5 µM ([3]; dose 500 nM) of the same molecule?
The viability at 0.5 µM was 0.291%.

And the viability at 2.5 µM ([3]; dose 2500 nM)?
The viability at 2.5 µM was 0.232%.

What about the EC50 (monocytes (monocyte-lin); [6]) of the same molecule?
Its EC50 is 30 nM.

And the activity at 0.0002 µM (monocytes (monocyte-lin); dose 0.2 nM, 6 days, normalized to vehicle control, read-out: Mon normalized cell count)?
Its activity at 0.0002 µM is 90.9%.

What about the activity at 0.001 µM (monocytes (monocyte-lin); dose 1 nM, 6 days, normalized to vehicle control, read-out: Mon normalized cell count) of the same molecule?
The activity at 0.001 µM was 93.8%.

And the activity at 0.005 µM (monocytes (monocyte-lin); dose 5 nM, 6 days, normalized to vehicle control, read-out: Mon normalized cell count)?
Its activity at 0.005 µM is 77%.

And the activity at 0.025 µM (monocytes (monocyte-lin); dose 25 nM, 6 days, normalized to vehicle control, read-out: Mon normalized cell count)?
The activity at 0.025 µM was 0.638%.

And the activity at 0.1 µM (monocytes (monocyte-lin); dose 100 nM, 6 days, normalized to vehicle control, read-out: Mon normalized cell count)?
Its activity at 0.1 µM is 0.419%.

And the activity at 0.5 µM (monocytes (monocyte-lin); dose 500 nM, 6 days, normalized to vehicle control, read-out: Mon normalized cell count)?
Its activity at 0.5 µM is 1.04%.

What about the activity at 2.5 µM (monocytes (monocyte-lin); dose 2500 nM, 6 days, normalized to vehicle control, read-out: Mon normalized cell count) of the same molecule?
Its activity at 2.5 µM is 0.347%.

What about the Emax (monocytes (monocyte-lin); parameter from QSP model fitting, read-out: Emax_drug_Mono) of the same molecule?
The Emax was 25.8%.

What about the activity at 0.0002 µM ([4]; dose 0.2 nM) of the same molecule?
The activity at 0.0002 µM was 126%.

And the activity at 0.001 µM ([4]; dose 1 nM)?
Its activity at 0.001 µM is 119%.

What about the activity at 0.005 µM ([4]; dose 5 nM) of the same molecule?
Its activity at 0.005 µM is 109%.

What about the activity at 0.025 µM ([4]; dose 25 nM) of the same molecule?
The activity at 0.025 µM was 3.34%.

What about the activity at 0.1 µM ([4]; dose 100 nM) of the same molecule?
The activity at 0.1 µM was 0.101%.

And the activity at 0.5 µM ([4]; dose 500 nM)?
The activity at 0.5 µM was 0.687%.

And the activity at 2.5 µM ([4]; dose 2500 nM)?
The activity at 2.5 µM was 0.327%.

What about the EC50 (granulocytes (Gran-lin); Homo sapiens, 144 h, QSP model fit of 6-day MLTA data) of the same molecule?
The EC50 was 15.8 nM.

What about the activity at 0.0002 µM (granulocytes (Gran-lin); Homo sapiens, 144 h, dose 0.2 nM, 6 days, normalized to vehicle control, read-out: Gran normalized cell count) of the same molecule?
The activity at 0.0002 µM was 104%.

What about the activity at 0.001 µM (granulocytes (Gran-lin); Homo sapiens, 144 h, dose 1 nM, 6 days, normalized to vehicle control, read-out: Gran normalized cell count) of the same molecule?
The activity at 0.001 µM was 122%.

And the activity at 0.005 µM (granulocytes (Gran-lin); Homo sapiens, 144 h, dose 5 nM, 6 days, normalized to vehicle control, read-out: Gran normalized cell count)?
The activity at 0.005 µM was 92.8%.

And the activity at 0.025 µM (granulocytes (Gran-lin); Homo sapiens, 144 h, dose 25 nM, 6 days, normalized to vehicle control, read-out: Gran normalized cell count)?
The activity at 0.025 µM was 0.105%.

And the activity at 0.1 µM (granulocytes (Gran-lin); Homo sapiens, 144 h, dose 100 nM, 6 days, normalized to vehicle control, read-out: Gran normalized cell count)?
The activity at 0.1 µM was 0.0692%.

What about the activity at 0.5 µM (granulocytes (Gran-lin); Homo sapiens, 144 h, dose 500 nM, 6 days, normalized to vehicle control, read-out: Gran normalized cell count) of the same molecule?
The activity at 0.5 µM was 0.0215%.

What about the activity at 2.5 µM (granulocytes (Gran-lin); Homo sapiens, 144 h, dose 2500 nM, 6 days, normalized to vehicle control, read-out: Gran normalized cell count) of the same molecule?
The activity at 2.5 µM was 0.0279%.

And the Emax (granulocytes (Gran-lin); Homo sapiens, 144 h, parameter from QSP model fitting, read-out: Emax_drug_Gran)?
The Emax was 236%.

What about the “EmaxCK,Gran” value (granulocytes (Gran-lin); [7]) of the same molecule?
The value was 1.360 day⁻¹.

What about the EC50 ([5]; Homo sapiens, Monocyte, 144 h, QSP model fit of 6-day MLTA data, read-out: EC50MonoP) of the same molecule?
The EC50 was 24.8 nM.

What about the activity at 0.0002 µM ([5]; Homo sapiens, Monocyte, 144 h, dose 0.2 nM, 6 days, normalized to vehicle control, read-out: MonoPs normalized cell count) of the same molecule?
The activity at 0.0002 µM was 102%.

And the activity at 0.001 µM ([5]; Homo sapiens, Monocyte, 144 h, dose 1 nM, 6 days, normalized to vehicle control, read-out: MonoPs normalized cell count)?
Its activity at 0.001 µM is 112%.

What about the activity at 0.005 µM ([5]; Homo sapiens, Monocyte, 144 h, dose 5 nM, 6 days, normalized to vehicle control, read-out: MonoPs normalized cell count) of the same molecule?
Its activity at 0.005 µM is 89%.

And the activity at 0.025 µM ([5]; Homo sapiens, Monocyte, 144 h, dose 25 nM, 6 days, normalized to vehicle control, read-out: MonoPs normalized cell count)?
Its activity at 0.025 µM is 0.562%.

What about the activity at 0.1 µM ([5]; Homo sapiens, Monocyte, 144 h, dose 100 nM, 6 days, normalized to vehicle control, read-out: MonoPs normalized cell count) of the same molecule?
Its activity at 0.1 µM is 0.118%.

And the activity at 0.5 µM ([5]; Homo sapiens, Monocyte, 144 h, dose 500 nM, 6 days, normalized to vehicle control, read-out: MonoPs normalized cell count)?
The activity at 0.5 µM was 0.188%.

And the activity at 2.5 µM ([5]; Homo sapiens, Monocyte, 144 h, dose 2500 nM, 6 days, normalized to vehicle control, read-out: MonoPs normalized cell count)?
The activity at 2.5 µM was 0.286%.

What about the Emax ([5]; Homo sapiens, Monocyte, 144 h, parameter from QSP model fitting, read-out: Emax_drug_MonoP) of the same molecule?
The Emax was 156%.

And the “EmaxCK,MonoP” value [5, 7]?
Its value is 0.556 day⁻¹.
